In the NIST ThermoML archive (doi:10.1016/j.tca.2012.05.004):
Numbers after ± are expanded uncertainties.

Details: 101.33 kPa, Liquid, Vibrating tube method

Compound	mass density (288.15 K) [kg/m3]	mass density (293.15 K) [kg/m3]	mass density (298.15 K) [kg/m3]	mass density (303.15 K) [kg/m3]	mass density (308.15 K) [kg/m3]	mass density (313.15 K) [kg/m3]
CCCCCCC(C)O (stereo unspecified) [2-octanol]	824.028 ± 0.3	820.313 ± 0.3	816.559 ± 0.3	812.768 ± 0.3	808.94 ± 0.31	805.079 ± 0.31
ClCCCl [1,2-dichloroethane]	1259.99 ± 0.58	1252.77 ± 0.57	1245.49 ± 0.56	1238.18 ± 0.56	1230.84 ± 0.55	1223.46 ± 0.54
CCCCC(C)O (stereo unspecified) [2-hexanol]	818.064 ± 0.3	814.174 ± 0.3	810.227 ± 0.31	806.225 ± 0.31	802.16 ± 0.31	798.04 ± 0.31

Now from value to compound:

mass density (288.15 K) [kg/m3]	mass density (293.15 K) [kg/m3]	mass density (298.15 K) [kg/m3]	mass density (303.15 K) [kg/m3]	mass density (308.15 K) [kg/m3]	mass density (313.15 K) [kg/m3]	Compound
813.272 ± 0.3	809.305 ± 0.31	805.27 ± 0.31	801.157 ± 0.31	796.97 ± 0.31	792.702 ± 0.31	CCCC(C)O (stereo unspecified) [pentan-2-ol]
789.337 ± 0.31	785.198 ± 0.31	780.987 ± 0.31	776.718 ± 0.31	772.371 ± 0.31	767.935 ± 0.31	CC(C)O [propan-2-ol]
810.879 ± 0.3	806.837 ± 0.31	802.716 ± 0.31	798.513 ± 0.31	794.218 ± 0.31	789.832 ± 0.31	CCC(C)O (stereo unspecified) [butan-2-ol]
